Nine molecules from the NIST ThermoML archive (doi:10.1021/je400679k) can be followed below.

Structures are written as SMILES. ± gives the expanded uncertainty stated by the source.

For data set [1] the following is noted: 101 kPa, Liquid, Vibrating tube method.
Data set [2] can be described thus: xn = mol fraction of the nth substance listed. As to conditions: 101 kPa, Liquid, Vibrating tube method, x2 = 0.

`CN(CCO)CCO` [N-methyldiethanolamine]: the mass density (as a rule, mass per unit of volume) in data set [1] (293.15 K) is listed as 1040.06 ± 0.92 kg/m3; in data set [1] (303.15 K), 1032.47 ± 0.9 kg/m3; in data set [1] (313.15 K), 1024.86 ± 0.89 kg/m3; in data set [1] (323.15 K), 1017.21 ± 0.87 kg/m3; in data set [1] (333.15 K) it was 1009.51 ± 0.86 kg/m3; in data set [1] (343.15 K), 1001.73 ± 0.84 kg/m3. Further, the values for the mass density in data set [1] (353.15 K) and in data set [1] (363.15 K) were 993.889 ± 0.83 kg/m3 and 985.958 ± 0.82 kg/m3, respectively.

Regarding `CN(C)CCO` [2-(N,N-dimethylamino)ethanol] + CNCCCN, the mass density in data set [2] (283.15 K) turned out to be 894.959 ± 0.11 kg/m3; in data set [2] (293.15 K), 886.56 ± 0.12 kg/m3; in data set [2] (303.15 K) it was 878.059 ± 0.12 kg/m3; in data set [2] (313.15 K) it was 869.428 ± 0.12 kg/m3; in data set [2] (323.15 K), 860.655 ± 0.12 kg/m3; in data set [2] (333.15 K), 851.72 ± 0.13 kg/m3. The mass density in data set [2] (343.15 K) is reported as 842.604 ± 0.13 kg/m3; in data set [2] (353.15 K), 833.288 ± 0.13 kg/m3; in data set [2] (363.15 K), 823.754 ± 0.14 kg/m3.

Take `CCN(CC)CCO` [(diethylamino)ethanol]: the mass density in data set [1] (283.15 K) amounted to 894.423 ± 0.23 kg/m3; in data set [1] (293.15 K), 885.356 ± 0.23 kg/m3; in data set [1] (303.15 K), 876.155 ± 0.23 kg/m3; in data set [1] (313.15 K), 866.828 ± 0.23 kg/m3; in data set [1] (323.15 K), 857.388 ± 0.23 kg/m3; in data set [1] (333.15 K) it was 847.839 ± 0.23 kg/m3. In addition, the results for the mass density in data set [1] (343.15 K), in data set [1] (353.15 K) and in data set [1] (363.15 K) were 838.157 ± 0.23 kg/m3, 828.488 ± 0.23 kg/m3 and 818.597 ± 0.24 kg/m3, respectively.

Take `CN(C)CCO` [2-(N,N-dimethylamino)ethanol]: the mass density in data set [1] (283.15 K) amounted to 894.959 ± 0.11 kg/m3; in data set [1] (293.15 K), 886.56 ± 0.12 kg/m3; in data set [1] (303.15 K), 878.059 ± 0.12 kg/m3; in data set [1] (313.15 K), 869.428 ± 0.12 kg/m3; in data set [1] (323.15 K), 860.655 ± 0.12 kg/m3; in data set [1] (333.15 K), 851.72 ± 0.13 kg/m3. The results for the mass density in data set [1] (343.15 K), in data set [1] (353.15 K) and in data set [1] (363.15 K) were 842.604 ± 0.13 kg/m3, 833.288 ± 0.13 kg/m3 and 823.754 ± 0.14 kg/m3, respectively.

For `CNCCCN` [N-methyl-1,3-diaminopropane], the mass density in data set [1] (283.15 K) is 860.459 ± 0.68 kg/m3; in data set [1] (293.15 K), 851.605 ± 0.67 kg/m3; in data set [1] (303.15 K), 842.69 ± 0.67 kg/m3; in data set [1] (313.15 K), 833.715 ± 0.66 kg/m3; in data set [1] (323.15 K) it was 824.673 ± 0.65 kg/m3; in data set [1] (333.15 K) it was 815.559 ± 0.64 kg/m3. Besides, the mass density in data set [1] (343.15 K) was 806.37 ± 0.63 kg/m3; in data set [1] (353.15 K) it was 797.093 ± 0.62 kg/m3; in data set [1] (363.15 K), 787.723 ± 0.61 kg/m3.

`CCN(CC)CCO` [(diethylamino)ethanol] + CNCCCN: the mass density came out at 894.423 ± 0.23 kg/m3 in data set [2] (283.15 K); 885.356 ± 0.23 kg/m3 in data set [2] (293.15 K); 876.155 ± 0.23 kg/m3 in data set [2] (303.15 K); 866.828 ± 0.23 kg/m3 in data set [2] (313.15 K); 857.388 ± 0.23 kg/m3 in data set [2] (323.15 K); 847.839 ± 0.23 kg/m3 in data set [2] (333.15 K). The mass density worked out at 838.157 ± 0.23 kg/m3 in data set [2] (343.15 K), 828.488 ± 0.23 kg/m3 in data set [2] (353.15 K) and 818.597 ± 0.24 kg/m3 in data set [2] (363.15 K).

`CN(CCO)CCO` [N-methyldiethanolamine] + CNCCCN: the mass density in data set [2] (293.15 K) worked out at 1040.06 ± 0.92 kg/m3; in data set [2] (303.15 K), 1032.47 ± 0.9 kg/m3; in data set [2] (313.15 K) it was 1024.86 ± 0.89 kg/m3; in data set [2] (323.15 K) it was 1017.21 ± 0.87 kg/m3; in data set [2] (333.15 K), 1009.51 ± 0.86 kg/m3; in data set [2] (343.15 K), 1001.73 ± 0.84 kg/m3. Besides, the results for the mass density in data set [2] (353.15 K) and in data set [2] (363.15 K) were 993.889 ± 0.83 kg/m3 and 985.958 ± 0.82 kg/m3, respectively.

As to `O` [water], the mass density in data set [1] (283.15 K) came to 999.701 ± 0.033 kg/m3; in data set [1] (333.15 K) it was 983.197 ± 0.041 kg/m3; in data set [1] (343.15 K) it was 977.76 ± 0.043 kg/m3; in data set [1] (353.15 K) it was 971.788 ± 0.046 kg/m3; in data set [1] (363.15 K) it was 965.305 ± 0.048 kg/m3.

Take `O` [water] + CNCCCN: the mass density stood at 999.701 ± 0.033 kg/m3 in data set [2] (283.15 K); 983.197 ± 0.041 kg/m3 in data set [2] (333.15 K); 977.76 ± 0.043 kg/m3 in data set [2] (343.15 K); 971.788 ± 0.046 kg/m3 in data set [2] (353.15 K); 965.305 ± 0.048 kg/m3 in data set [2] (363.15 K).
